We go through one compound from paper PMC10889512, “Pyrimidine Schiff Bases: Synthesis, Structural Characterization and Recent Studies on Biological Activities” (International Journal of Molecular Sciences, 2024).

One experiment relates to A. baumannii 19606. Put plainly: Antimicrobial activity assay, microdilution. The note with it: concentration range from 0.5 µg/mL to 256 µg/mL. The format is cell-based, Acinetobacter baumannii. The method, then:
(§1) In vitro antimicrobial and antifungal activity was screened using microdilution and modified Richard’s medium. The assay was performed for compounds 4a, 4b, 4c, and 4d with seven reference microbial strains from ATTC (E. coli 25922, S. aureus 43300, K. pneumoniae 700603, A. baumannii 19606, P. aeruginosa 27853, E. faecalis 29212, and C. albicans 10231).
(§2) Seven reference strains from the ATCC collection (Escherichia coli 25922, Staphylococcus aureus 43300, Klebsiella pneumoniae 13883, Acinetobacter baumannii 19606, Pseudomonas aeruginosa 27853, Enterococcus faecalis 29212, and Candida albicans 10231) were used. The assay was performed according to a modified version of Richard et al.’s protocol and ISO standards 20776-1:2019 and 16256:2021 [78, 79]. Microdilution with spectrophotometric measurement was used to calculate MIC50 (minimal inhibitory concentration which decreased the microorganisms’ viability to 50%) values. Briefly, compounds were prepared 100× concentrated in DMSO, and during the whole experiment, they were diluted to 1× with TSB. Serial dilutions of tested compounds were made directly on plates at a concentration range of 0.5 to 256 µg/mL. Microorganisms were incubated for 24 h at 37 °C (bacteria) or 25 °C (yeast) on Petri dishes with TSA. The bacteria/yeast suspensions were prepared at a density 5 × 10^5 CFU/mL (for bacteria) or 0.5–2.5 × 10^5 CFU/mL (for yeast) with TSB. Also, appropriate controls were contained in the experiment: the positive control consisted of a specific strain in TSB, and the negative control was TSB alone. To ensure that used strains were not modified and were still responding to antibacterial/antifungal compounds established by EUCAST, additional tests were conducted with levofloxacin, gentamicin, and amphotericin B. Microplates were incubated on a shaker for 24 h at 37 ± 1 °C or 25 ± 1 °C for the bacteria and yeast strains, respectively. After the incubation, spectrophotometric measurement was performed at 580 nm. MIC50 was calculated by comparing the results obtained for experimental sets with positive controls. Next, 50 µL aliquots of 1% (m/v) TTC solution were added to each well. The plates were incubated on the shaker for 24 h at 37/25 °C. In living microbial cells, colourless TTC is converted into red formazan crystals, which allows for visual observation and MBC/MFC (minimal bactericidal/fungicidal concentration) value assessment.
In general terms: Broth dilution looks for growth in wells or tubes with falling amounts of substance.

In another experiment the test system is AGS cell line. The experiment in a line: Comet assay (single-cell gel electrophoresis), AGS. The class given is cell-based, human. The protocol:
Single-cell gel electrophoresis was performed to assess the potential genotoxic effect on AGS and A172 after incubation with compound 4b at IC50. This method is based on the ability of damaged DNA to migrate out of the cell during electrophoresis. After DNA staining (Hoechst 33342), the characteristic “comet tail” could be observed under the fluorescence microscope. The damages in 100 randomly selected cells were visually classified into five groups according to the length of the “comet tail”. Group 0 consisted of cells without damaged DNA, while group 4 contained cells with maximally long tails. Based on this, a group damage index (DI) was calculated. The genotoxic effect was found in both examined cell lines. […]
The comet assay was performed according to the method of Singh et al. with slight modifications. […] A total of 100 randomly selected cells were scored, and captured comets were classified based on the comet’s tail length as follows: class 0 contained comets with no damaged DNA; class 1, those with low damage; class 2, those with medium damage; class 3, those with high damage; and class 4, those with very high damage. The damage index (DI) was calculated as follows: DI=0×n0+1×n1+2×n2+3×n3+4×n4, n0,1,2,3,4 —the amount of comets in each class.

The next experiment concerns E. faecalis 29212. The experiment in a line: Antimicrobial activity assay, microdilution. The format is cell-based, Enterococcus faecalis. The conditions noted are these: concentration range from 0.5 µg/mL to 256 µg/mL. The method, then: as §1, §2

Regarding `Cc1nc(-c2ccccc2)nc(Nc2ccc(F)cc2)c1C=Nc1cccc(Cl)c1` [compound 4b, 5-{[(3-chlorophenyl)imino]methyl}-N-(4-fluorophenyl)-6-methyl-2-phenylpyrimidin-4-amine], the “MIC and MBC/MFC activity” value with A. baumannii 19606 and against E. faecalis 29212 was “Neither MIC nor MBC/MFC activity was observed” each time. Further, the DNA damage index in the experiment with AGS cell line (at IC50, 24 h) is on record as 63 arbitrary units; with AGS cell line (at IC50, 48 h) it was 107 arbitrary units.
